The target of the test is T1, human CCT5 (TRiC subunit 5) homo-oligomeric complex (Homo sapiens, UniProt P48643, H147R).
T1 construct: recombinant from pET21a in E. coli BL21(DE3)RIL, Histrap purified (tag not described here); double homo-octameric ring (two rings of eight, homo-hexadecamer)
The experiment in a line: X-ray crystal structure, […] Å. The conditions noted are these: co-crystallised with 5.0 mM ADP; nucleotide-binding site of equatorial domain; 4 ADP per 4 subunits in asymmetric unit.

One molecule from article PMC5473854, “Structure of the human TRiC/CCT Subunit 5 associated with hereditary sensory neuropathy” (Scientific Reports, 2017) can be followed below.

T1 sequence (P48643 whole entry H147R, one chain of several): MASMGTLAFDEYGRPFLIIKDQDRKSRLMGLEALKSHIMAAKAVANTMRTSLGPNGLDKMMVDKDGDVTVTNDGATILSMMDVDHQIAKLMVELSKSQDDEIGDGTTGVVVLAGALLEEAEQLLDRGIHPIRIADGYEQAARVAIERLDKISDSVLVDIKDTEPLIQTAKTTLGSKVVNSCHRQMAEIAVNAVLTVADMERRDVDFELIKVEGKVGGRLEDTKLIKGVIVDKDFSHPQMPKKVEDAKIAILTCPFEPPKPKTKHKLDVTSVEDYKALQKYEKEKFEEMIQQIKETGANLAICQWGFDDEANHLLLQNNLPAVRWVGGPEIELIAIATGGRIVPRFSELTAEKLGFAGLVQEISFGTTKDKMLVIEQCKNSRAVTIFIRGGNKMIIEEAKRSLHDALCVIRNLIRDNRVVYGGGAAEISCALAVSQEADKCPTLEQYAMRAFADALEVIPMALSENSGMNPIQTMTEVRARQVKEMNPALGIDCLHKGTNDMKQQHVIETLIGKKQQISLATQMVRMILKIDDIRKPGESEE

With `Nc1ncnc2c1ncn2[C@@H]1O[C@H](COP(=O)(O)OP(=O)(O)O)[C@@H](O)[C@H]1O` [ADP], the “X-ray crystal structure, 3.6 Å” value was “the CCT5-H147R structure was solved in complex with the nucleotide ADP”.
